Laboratory results reported in patent US8389523B2, “Substituted quinoxaline and an agrochemical composition thereof” (Kumiai Chemical Industry Co., Ltd., priority 2007, dated 2013).

What was measured:
Format in all cases: in vivo
Design in all cases: scale not given here
[1] = test system: Echinochloa oryzicola Vasing; assay: Herbicidal effects in paddy field soil treatment (Test Example 1); details: for Herbicidal effects index, Echinochloa oryzicola Vasing: paddy field soil treatment, 1000 g of the active ingredient per hectare, wettable powder added dropwise on water surface, 21st day after treatment
Method in brief: (§1)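 Application rate 1000 g a.i./ha, delivered as water-diluted wettable powder onto flooded (3 cm) paddy soil one day after sowing. Plants kept in a greenhouse and evaluated for herbicidal effect on day 21 post-treatment.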

[2] = test system: Monochoria vaginalis (Burm. f.) Presl var. plantaginea (Roxb.) Solms-Laub.; assay: as above; details: for Herbicidal effects index, Monochoria vaginalis (Burm. f.) Presl var. plantaginea (Roxb.) Solms-Laub.: paddy field soil treatment, 1000 g of the active ingredient per hectare, wettable powder added dropwise on water surface, 21st day after treatment
Method in brief: as §1

[3] = test system: Scirpus juncoides Roxb. var. ohwianus. T. Koyama; assay: as above; details: for Herbicidal effects index, Scirpus juncoides Roxb. var. ohwianus. T. Koyama: paddy field soil treatment, 1000 g of the active ingredient per hectare, wettable powder added dropwise on water surface, 21st day after treatment
Method in brief: as §1

[4] = test system: Abutilon theophrasti medicus; assay: Herbicidal effects in upland field soil treatment (Test Example 2); details: 1000 g active ingredient per hectare, 21st day after treatment, criteria of Table 138
Method in brief: (§2)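 Herbicidal effect graded 21 days after treatment, plants kept in greenhouse. Treatment was a soil-surface spray of wettable powder in water, 1000 g a.i./ha in 1000 L/ha, applied after sowing and covering seeds.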

Amaranthus viridis L. [5] = assay: as above; details: 1000 g active ingredient per hectare, 21st day after treatment, criteria of Table 138
Method in brief: as §2

[6] = test system: Abutilon theophrasti medicus; assay: Herbicidal effects in upland field foliar treatment (Test Example 3); details: criteria of Table 138; for herbicidal effects on Abutilon theophrasti medicus: 1000 g of the active ingredient per hectare, 14th day after the treatment, wettable powder; for herbicidal effect (index) on Abutilon theophrasti medicus: 1000 g active ingredient per hectare, 14th day after treatment
Method in brief: (§3)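 Foliar spray of diluted wettable powder, 1000 g a.i./ha in 1000 L/ha, onto two-week-old greenhouse-grown seedlings in upland field soil. Plants kept in the greenhouse, with effect rated on a criteria scale at day 14.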

Amaranthus viridis L. [7] = assay: as above; details: criteria of Table 138; for herbicidal effects on Amaranthus viridis L.: 1000 g of the active ingredient per hectare, 14th day after the treatment, wettable powder; for herbicidal effect (index) on Amaranthus viridis L.: 1000 g active ingredient per hectare, 14th day after treatment
Method in brief: as §3

[8] = test system: Echinochloa crus-galli (L.) P. Beauv. var. crus-galli; assay: as above; details: criteria of Table 138; for herbicidal effects on Echinochloa crus-galli (L.) P. Beauv. var. crus-galli: 1000 g of the active ingredient per hectare, 14th day after the treatment, wettable powder; for herbicidal effect (index) on Echinochloa crus-galli (L.) P. Beauv. var. crus-galli: 1000 g active ingredient per hectare, 14th day after treatment
Method in brief: as §3

[9] = paddy field soil treatment (Test Example 1), criteria of Table 138

CCc1ccc(-n2c(=O)c(C(=O)C3=C(O)CCCC3=O)nc3ccccc32)cc1 [II-24]
4: herbicidal effects on Abutilon theophrasti medicus [6]
5: Herbicidal effects index, Echinochloa oryzicola Vasing [1] | Herbicidal effects index, Monochoria vaginalis (Burm. f.) Presl var. plantaginea (Roxb.) Solms-Laub. [2] | Herbicidal effects index, Scirpus juncoides Roxb. var. ohwianus. T. Koyama [3] | herbicidal effect (index) on Abutilon theophrasti medicus [4] | herbicidal effect (index) on Amaranthus viridis L. (Amaranthus viridis L. [5]) | herbicidal effects on Amaranthus viridis L. (Amaranthus viridis L. [7]) | herbicidal effects on Echinochloa crus-galli (L.) P. Beauv. var. crus-galli [8]

O=C1CCCC(O)=C1C(=O)c1nc2ccc(F)cc2n(-c2ccccc2)c1=O [II-241]
5: Herbicidal effects index, Echinochloa oryzicola Vasing [1] | Herbicidal effects index, Monochoria vaginalis (Burm. f.) Presl var. plantaginea (Roxb.) Solms-Laub. [2] | Herbicidal effects index, Scirpus juncoides Roxb. var. ohwianus. T. Koyama [3] | herbicidal effect (index) on Abutilon theophrasti medicus [4] | herbicidal effect (index) on Amaranthus viridis L. (Amaranthus viridis L. [5]) | herbicidal effects on Abutilon theophrasti medicus [6] | herbicidal effects on Amaranthus viridis L. (Amaranthus viridis L. [7]) | herbicidal effects on Echinochloa crus-galli (L.) P. Beauv. var. crus-galli [8]

CC1(C)CC(=O)C(C(=O)c2cnc3ccccc3n2)=C(O)C1 [comparative compound C, reference compound]
1: herbicidal effect (index) on Echinochloa oryzicola Vasing [1, 9] | herbicidal effect (index) on Scirpus juncoides Roxb. var. ohwianus. T. Koyama [3, 9]
2: herbicidal effect (index) on Monochoria vaginalis (Burm. f.) Presl var. plantaginea (Roxb.) Solms-Laub. [2, 9]
4: herbicidal effects on Abutilon theophrasti medicus [6]
3: herbicidal effect (index) on Amaranthus viridis L. (Amaranthus viridis L. [5])
0: herbicidal effect (index) on Abutilon theophrasti medicus [4] | herbicidal effects on Amaranthus viridis L. (Amaranthus viridis L. [7]) | herbicidal effects on Echinochloa crus-galli (L.) P. Beauv. var. crus-galli [8]

O=C1CCCC(O)=C1C(=O)c1nc2cccnc2n(-c2cccc(C(F)(F)F)c2)c1=O [IV-39]
5: Herbicidal effects index, Echinochloa oryzicola Vasing [1] | Herbicidal effects index, Monochoria vaginalis (Burm. f.) Presl var. plantaginea (Roxb.) Solms-Laub. [2] | Herbicidal effects index, Scirpus juncoides Roxb. var. ohwianus. T. Koyama [3] | herbicidal effect (index) on Abutilon theophrasti medicus [4] | herbicidal effect (index) on Amaranthus viridis L. (Amaranthus viridis L. [5]) | herbicidal effects on Abutilon theophrasti medicus [6] | herbicidal effects on Amaranthus viridis L. (Amaranthus viridis L. [7]) | herbicidal effects on Echinochloa crus-galli (L.) P. Beauv. var. crus-galli [8]

Cc1cc(-n2c(=O)c(C(=O)C3=C(O)CCCC3=O)nc3ccccc32)sn1 [I-156]
5: Herbicidal effects index, Echinochloa oryzicola Vasing [1] | Herbicidal effects index, Monochoria vaginalis (Burm. f.) Presl var. plantaginea (Roxb.) Solms-Laub. [2] | Herbicidal effects index, Scirpus juncoides Roxb. var. ohwianus. T. Koyama [3] | herbicidal effect (index) on Abutilon theophrasti medicus [4] | herbicidal effect (index) on Amaranthus viridis L. (Amaranthus viridis L. [5]) | herbicidal effect (index) on Abutilon theophrasti medicus [6] | herbicidal effect (index) on Amaranthus viridis L. (Amaranthus viridis L. [7]) | herbicidal effect (index) on Echinochloa crus-galli (L.) P. Beauv. var. crus-galli [8]

Cc1cc(-n2c(=O)c(C(=O)C3=C(O)C(C)(C)C(=O)C(C)(C)C3=O)nc3ccccc32)no1 [I-149]
5: Herbicidal effects index, Echinochloa oryzicola Vasing [1] | Herbicidal effects index, Monochoria vaginalis (Burm. f.) Presl var. plantaginea (Roxb.) Solms-Laub. [2] | herbicidal effect (index) on Abutilon theophrasti medicus [4] | herbicidal effect (index) on Amaranthus viridis L. (Amaranthus viridis L. [5]) | herbicidal effect (index) on Abutilon theophrasti medicus [6] | herbicidal effect (index) on Amaranthus viridis L. (Amaranthus viridis L. [7]) | herbicidal effect (index) on Echinochloa crus-galli (L.) P. Beauv. var. crus-galli [8]
4: Herbicidal effects index, Scirpus juncoides Roxb. var. ohwianus. T. Koyama [3]

O=C1CCCC(O)=C1C(=O)c1nc2ccccc2n(C2CC2)c1=O [Compound I-14]
5: Herbicidal effects index, Monochoria vaginalis (Burm. f.) Presl var. plantaginea (Roxb.) Solms-Laub. [2] | Herbicidal effects index, Scirpus juncoides Roxb. var. ohwianus. T. Koyama [3] | herbicidal effect (index) on Abutilon theophrasti medicus [4] | herbicidal effect (index) on Amaranthus viridis L. (Amaranthus viridis L. [5]) | herbicidal effect (index) on Abutilon theophrasti medicus [6] | herbicidal effect (index) on Amaranthus viridis L. (Amaranthus viridis L. [7])
4: Herbicidal effects index, Echinochloa oryzicola Vasing [1] | herbicidal effect (index) on Echinochloa crus-galli (L.) P. Beauv. var. crus-galli [8]

Cc1ccc(-n2c(=O)c(C(=O)C3=C(O)CCCC3=O)nc3ccccc32)cc1 [II-21]
5: Herbicidal effects index, Echinochloa oryzicola Vasing [1] | Herbicidal effects index, Monochoria vaginalis (Burm. f.) Presl var. plantaginea (Roxb.) Solms-Laub. [2] | Herbicidal effects index, Scirpus juncoides Roxb. var. ohwianus. T. Koyama [3] | herbicidal effect (index) on Abutilon theophrasti medicus [4] | herbicidal effect (index) on Amaranthus viridis L. (Amaranthus viridis L. [5]) | herbicidal effects on Abutilon theophrasti medicus [6] | herbicidal effects on Amaranthus viridis L. (Amaranthus viridis L. [7]) | herbicidal effects on Echinochloa crus-galli (L.) P. Beauv. var. crus-galli [8]

O=C1CCCC=C1C(=O)c1nc2ccccc2n(-c2ccccc2[N+](=O)[O-])c1=O [II-129]
5: Herbicidal effects index, Echinochloa oryzicola Vasing [1] | Herbicidal effects index, Monochoria vaginalis (Burm. f.) Presl var. plantaginea (Roxb.) Solms-Laub. [2] | Herbicidal effects index, Scirpus juncoides Roxb. var. ohwianus. T. Koyama [3] | herbicidal effect (index) on Abutilon theophrasti medicus [4] | herbicidal effect (index) on Amaranthus viridis L. (Amaranthus viridis L. [5]) | herbicidal effects on Abutilon theophrasti medicus [6] | herbicidal effects on Amaranthus viridis L. (Amaranthus viridis L. [7]) | herbicidal effects on Echinochloa crus-galli (L.) P. Beauv. var. crus-galli [8]

O=C1CCCC(O)=C1C(=O)c1nc2cc(F)cc(F)c2n(-c2ccccc2)c1=O [II-261]
4: herbicidal effect (index) on Abutilon theophrasti medicus [4]
5: Herbicidal effects index, Echinochloa oryzicola Vasing [1] | Herbicidal effects index, Monochoria vaginalis (Burm. f.) Presl var. plantaginea (Roxb.) Solms-Laub. [2] | Herbicidal effects index, Scirpus juncoides Roxb. var. ohwianus. T. Koyama [3] | herbicidal effect (index) on Amaranthus viridis L. (Amaranthus viridis L. [5]) | herbicidal effects on Abutilon theophrasti medicus [6] | herbicidal effects on Amaranthus viridis L. (Amaranthus viridis L. [7]) | herbicidal effects on Echinochloa crus-galli (L.) P. Beauv. var. crus-galli [8]

COc1cc(OC)nc(-n2c(=O)c(C(=O)C3=C(O)CCCC3=O)nc3ccccc32)n1 [I-197]
5: Herbicidal effects index, Echinochloa oryzicola Vasing [1] | Herbicidal effects index, Monochoria vaginalis (Burm. f.) Presl var. plantaginea (Roxb.) Solms-Laub. [2] | Herbicidal effects index, Scirpus juncoides Roxb. var. ohwianus. T. Koyama [3] | herbicidal effect (index) on Abutilon theophrasti medicus [4] | herbicidal effect (index) on Amaranthus viridis L. (Amaranthus viridis L. [5]) | herbicidal effect (index) on Abutilon theophrasti medicus [6] | herbicidal effect (index) on Amaranthus viridis L. (Amaranthus viridis L. [7]) | herbicidal effect (index) on Echinochloa crus-galli (L.) P. Beauv. var. crus-galli [8]

Cc1cc(Cn2c(=O)c(C(=O)C3=C(O)CCCC3=O)nc3ccccc32)on1 [I-213]
5: Herbicidal effects index, Monochoria vaginalis (Burm. f.) Presl var. plantaginea (Roxb.) Solms-Laub. [2] | Herbicidal effects index, Scirpus juncoides Roxb. var. ohwianus. T. Koyama [3] | herbicidal effect (index) on Abutilon theophrasti medicus [4] | herbicidal effect (index) on Amaranthus viridis L. (Amaranthus viridis L. [5]) | herbicidal effect (index) on Abutilon theophrasti medicus [6] | herbicidal effect (index) on Amaranthus viridis L. (Amaranthus viridis L. [7]) | herbicidal effect (index) on Echinochloa crus-galli (L.) P. Beauv. var. crus-galli [8]
4: Herbicidal effects index, Echinochloa oryzicola Vasing [1]

CCOc1ccc(-n2c(=O)c(C(=O)C3=C(O)CCCC3=O)nc3ccccc32)cc1 [II-69]
4: herbicidal effect (index) on Abutilon theophrasti medicus [4]
5: Herbicidal effects index, Echinochloa oryzicola Vasing [1] | Herbicidal effects index, Monochoria vaginalis (Burm. f.) Presl var. plantaginea (Roxb.) Solms-Laub. [2] | Herbicidal effects index, Scirpus juncoides Roxb. var. ohwianus. T. Koyama [3] | herbicidal effect (index) on Amaranthus viridis L. (Amaranthus viridis L. [5]) | herbicidal effects on Abutilon theophrasti medicus [6] | herbicidal effects on Amaranthus viridis L. (Amaranthus viridis L. [7]) | herbicidal effects on Echinochloa crus-galli (L.) P. Beauv. var. crus-galli [8]

O=C1CCCC(O)=C1C(=O)c1nc2ccccc2n(-c2nccs2)c1=O [I-159]
4: herbicidal effect (index) on Echinochloa crus-galli (L.) P. Beauv. var. crus-galli [8]
5: Herbicidal effects index, Echinochloa oryzicola Vasing [1] | Herbicidal effects index, Monochoria vaginalis (Burm. f.) Presl var. plantaginea (Roxb.) Solms-Laub. [2] | Herbicidal effects index, Scirpus juncoides Roxb. var. ohwianus. T. Koyama [3] | herbicidal effect (index) on Abutilon theophrasti medicus [4] | herbicidal effect (index) on Amaranthus viridis L. (Amaranthus viridis L. [5]) | herbicidal effect (index) on Abutilon theophrasti medicus [6] | herbicidal effect (index) on Amaranthus viridis L. (Amaranthus viridis L. [7])
